Results on two compounds are retold here after article PMC11597817, “Modulation of Multispecific Transporters by Uncaria tomentosa Extract and Its Major Phytoconstituents” (Pharmaceutics, 2024).

Read-outs that look alike come from different tables or passages of the source.

One series deals with T1, OCT1 (Homo sapiens, UniProt O15245).
T1 construct: expressed in transfected cells; host or cells: HEK293 (lentiviral transduction; cDNA synthesised by GenScript)
T1 sequence (O15245 1-554): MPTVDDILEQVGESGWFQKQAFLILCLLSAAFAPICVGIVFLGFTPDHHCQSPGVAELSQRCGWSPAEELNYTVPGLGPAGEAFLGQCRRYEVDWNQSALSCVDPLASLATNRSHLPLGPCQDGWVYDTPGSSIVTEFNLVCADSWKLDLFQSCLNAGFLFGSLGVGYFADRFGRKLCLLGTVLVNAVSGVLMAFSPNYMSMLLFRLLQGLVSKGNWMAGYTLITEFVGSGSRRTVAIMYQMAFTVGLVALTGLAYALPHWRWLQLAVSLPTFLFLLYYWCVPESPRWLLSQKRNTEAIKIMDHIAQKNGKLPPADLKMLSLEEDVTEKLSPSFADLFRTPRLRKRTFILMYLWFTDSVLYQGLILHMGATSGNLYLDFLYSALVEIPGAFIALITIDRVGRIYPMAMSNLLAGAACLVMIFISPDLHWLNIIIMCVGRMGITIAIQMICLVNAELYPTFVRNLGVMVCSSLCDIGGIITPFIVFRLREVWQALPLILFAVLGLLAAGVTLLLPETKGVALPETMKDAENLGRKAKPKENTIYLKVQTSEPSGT
The experiment in a line: Uptake inhibition assay, OCT1-overexpressing HEK293 cells. Format: cell-based. The following applies: oxindole alkaloids, substrate metformin, read-out: IC50 (95% CI of IC50). From the text:
The human embryonic kidney 293 (HEK293) cell line was purchased from Invitrogen/ThermoFisher (Waltham, MA, USA). Madin–Darby canine kidney II (MDCKII) wild type cells were obtained from the European Collection of Authenticated Cell Cultures (ECACC catalog no. 00062107). HEK293 cells overexpressing the human uptake OATP1B1 (NCBI Reference Sequence: NM_006446.4), OATP1B3 (NM_019844), OATP2B1 (NM_007256), OATP1A2 (NM_134431), OAT1-3 (BC033682.1; NM_006672.3; BC022387), OCT1-3 (BC126364.1; NM_003058; NM_021977), OCTN1 (NM_003059.3), NTCP (NM_003049.3), MATE1 (NM_018242.3), MATE2K (NM_001099646.2), ENT4 (NM_001040661.1), SGLT2 (AJ133127.1), ASCT1/2 (NM_003038.5; NM_005628.3), LAT1/2 (NM_003486.6; NM_012244.4), and THTR1/2 (NM_006996; NM_025243) and mock and human efflux BCRP (NM_004827.2), BSEP (NM_003742.2), MDR1 (NM_000927.4), and MRP1-5 (NM_004996; NM_000392.4; BC137347.1; NM_005845.4; NM_005688.2) transporters as well as MDCKII overexpressing human ENT1/2 (NM_001078177; NM_001532.2) and URAT1 (BC053348) transporters were created by lentiviral transduction. The cDNA encoding respective transporters were synthetized and cloned by GenScript (Piscataway, NJ, USA). The production of lentivirus supernatants, the transduction of the cells, cloning, functional characterization, and validation were performed by Charles River Laboratories Hungary Kft. (Budapest, Hungary).
Cell cultures were maintained in Dulbecco’s modified Eagle’s medium (DMEM), 4.5 g/L of glucose, supplemented with GlutaMAX^TM, 2.5 v/v % penicillin/streptomycin, and 10% fetal bovine serum (FBS) at 37 °C, 5% CO2, and 90% relative humidity. The medium was replaced two or three times per week; cells were harvested using TrypLE™ Express (ThermoFisher) at 80 to 90% confluence and passaged or seeded. HEK293 cells of passage < 12 (from thawing) and MDCKII cells of passage < 18 were seeded at a density of 1 × 10^5 cells/well onto poly-D-lysine-coated or -non-coated 96-well plates and incubated for 18–22 h prior to inhibition assays.
(§1) Plated cells were preincubated with a transport buffer (HBSS) containing 30 or 150 µg/mL of UT extract or 100 µM of isopteropodine, mitraphylline, or uncarine D for 15 min at an appropriate temperature. […] For radiolabeled substrates, accumulation was measured by liquid scintillation counting (MicroBeta Scintillation Counter, PerkinElmer).
(§2) The transporter-mediated uptake and ATP-dependent transport were determined by subtracting the activity of the control cell/transporter abundant-membrane in the presence of AMP from the activity of the transporter-overexpressing cell/transporter-abundant membrane in the presence of ATP. The relative transporter-specific accumulation was expressed as the percent of DMSO activity. […] Confidence intervals (CIs) of 95% were also determined. […]

In another series the test system is MDR1. The following applies: MDR1-overexpressing MDCKII cells and Caco-2 cells; cited from earlier work.
A further series has as its system MRPs. The following applies: cited from earlier work.
Another series has as its target T2, OATP1B3 (Homo sapiens, UniProt Q9NPD5).
T2 construct: expressed in transfected cells; host or cells: HEK293 (lentiviral transduction; cDNA synthesised by GenScript)
The experiment in a line: Uptake inhibition assay, OATP1B3-overexpressing HEK293 cells. It counts as cell-based. The settings on record: oxindole alkaloids, substrate CCK-8, read-out: IC50 (95% CI of IC50). As for the experimental part:
(§3) The human embryonic kidney 293 (HEK293) cell line was purchased from Invitrogen/ThermoFisher (Waltham, MA, USA). Madin–Darby canine kidney II (MDCKII) wild type cells were obtained from the European Collection of Authenticated Cell Cultures (ECACC catalog no. 00062107). […]
as §1, §2

The target in another series is T3, OATP2B1 (Homo sapiens, UniProt O94956).
T3 construct: expressed in transfected cells; host or cells: HEK293 (lentiviral transduction; cDNA synthesised by GenScript)
The experiment in a line: Uptake inhibition assay, OATP2B1-overexpressing HEK293 cells. It counts as cell-based. The settings on record: oxindole alkaloids, substrate E3S, read-out: IC50 (95% CI of IC50). The protocol: as §3, §1, §2

For another series, the target named is T4, OATP1A2 (Homo sapiens, UniProt P46721).
T4 construct: expressed in transfected cells; host or cells: HEK293 (lentiviral transduction; cDNA synthesised by GenScript)
The experiment in a line: Uptake inhibition assay, OATP1A2-overexpressing HEK293 cells. It counts as cell-based. The settings on record: oxindole alkaloids; substrate E3S; read-out: IC50 (95% CI of IC50). The protocol:
as §3, §1, §2

The target in another series is T5, ENT4 (Homo sapiens, UniProt Q7RTT9).
T5 construct: expressed in transfected cells; host or cells: HEK293 (lentiviral transduction; cDNA synthesised by GenScript)
The experiment in a line: Uptake inhibition assay, ENT4-overexpressing HEK293 cells. It counts as cell-based. The following applies: 100 µM alkaloid. The protocol:
as §3, §1, §2

T2 sequence (Q9NPD5 whole entry): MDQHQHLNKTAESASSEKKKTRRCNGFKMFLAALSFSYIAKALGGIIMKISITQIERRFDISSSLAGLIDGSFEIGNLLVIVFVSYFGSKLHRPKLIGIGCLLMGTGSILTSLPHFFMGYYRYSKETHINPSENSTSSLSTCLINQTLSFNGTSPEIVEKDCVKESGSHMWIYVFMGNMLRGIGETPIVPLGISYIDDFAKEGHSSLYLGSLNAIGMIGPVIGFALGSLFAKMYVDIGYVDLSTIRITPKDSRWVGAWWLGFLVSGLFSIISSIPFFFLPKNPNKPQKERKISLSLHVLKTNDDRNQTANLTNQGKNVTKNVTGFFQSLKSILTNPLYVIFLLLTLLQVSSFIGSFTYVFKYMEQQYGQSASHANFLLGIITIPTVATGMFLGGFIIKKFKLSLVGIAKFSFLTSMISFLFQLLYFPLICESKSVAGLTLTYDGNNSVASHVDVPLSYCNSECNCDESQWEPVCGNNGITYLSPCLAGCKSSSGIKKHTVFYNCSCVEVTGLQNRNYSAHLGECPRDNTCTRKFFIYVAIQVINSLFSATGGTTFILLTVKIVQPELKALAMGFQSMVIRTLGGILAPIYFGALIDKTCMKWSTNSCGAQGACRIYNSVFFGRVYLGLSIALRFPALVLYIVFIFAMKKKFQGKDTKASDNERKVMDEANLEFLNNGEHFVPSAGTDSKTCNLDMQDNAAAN
T3 sequence (O94956 whole entry): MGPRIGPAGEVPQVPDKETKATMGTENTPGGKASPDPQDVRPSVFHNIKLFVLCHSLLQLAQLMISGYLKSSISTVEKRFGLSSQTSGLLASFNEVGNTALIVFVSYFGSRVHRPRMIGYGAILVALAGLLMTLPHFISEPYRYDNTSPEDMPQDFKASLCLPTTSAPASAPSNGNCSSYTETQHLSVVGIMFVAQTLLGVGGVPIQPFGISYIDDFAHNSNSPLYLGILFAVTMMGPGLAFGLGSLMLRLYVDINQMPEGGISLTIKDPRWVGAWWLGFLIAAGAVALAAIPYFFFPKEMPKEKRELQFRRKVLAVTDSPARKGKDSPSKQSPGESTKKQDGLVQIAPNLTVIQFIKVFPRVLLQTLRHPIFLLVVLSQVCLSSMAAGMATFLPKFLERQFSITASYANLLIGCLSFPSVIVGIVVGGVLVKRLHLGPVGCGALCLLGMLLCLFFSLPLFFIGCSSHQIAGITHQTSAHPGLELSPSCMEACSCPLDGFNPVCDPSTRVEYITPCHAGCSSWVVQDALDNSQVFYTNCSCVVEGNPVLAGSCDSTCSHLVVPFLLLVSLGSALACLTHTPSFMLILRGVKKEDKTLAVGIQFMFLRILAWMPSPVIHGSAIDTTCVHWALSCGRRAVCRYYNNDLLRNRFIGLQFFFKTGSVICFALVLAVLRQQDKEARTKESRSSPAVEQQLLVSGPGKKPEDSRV
T4 sequence (P46721 whole entry): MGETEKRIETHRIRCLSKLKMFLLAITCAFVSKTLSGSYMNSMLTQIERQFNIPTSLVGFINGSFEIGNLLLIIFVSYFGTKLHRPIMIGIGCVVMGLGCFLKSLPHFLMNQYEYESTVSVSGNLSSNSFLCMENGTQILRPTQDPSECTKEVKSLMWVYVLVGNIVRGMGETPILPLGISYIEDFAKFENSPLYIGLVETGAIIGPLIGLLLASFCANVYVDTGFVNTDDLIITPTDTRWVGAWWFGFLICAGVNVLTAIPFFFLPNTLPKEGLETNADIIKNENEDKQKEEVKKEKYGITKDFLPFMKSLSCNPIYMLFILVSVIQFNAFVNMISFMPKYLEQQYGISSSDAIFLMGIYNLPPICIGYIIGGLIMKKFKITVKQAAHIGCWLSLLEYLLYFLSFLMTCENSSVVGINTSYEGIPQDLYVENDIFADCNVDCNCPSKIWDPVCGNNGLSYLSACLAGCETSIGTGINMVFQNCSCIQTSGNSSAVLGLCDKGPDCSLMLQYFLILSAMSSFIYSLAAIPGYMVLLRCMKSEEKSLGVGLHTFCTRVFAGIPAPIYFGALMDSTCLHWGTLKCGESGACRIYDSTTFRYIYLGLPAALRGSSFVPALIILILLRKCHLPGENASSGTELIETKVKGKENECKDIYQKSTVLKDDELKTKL
T5 sequence (Q7RTT9 whole entry): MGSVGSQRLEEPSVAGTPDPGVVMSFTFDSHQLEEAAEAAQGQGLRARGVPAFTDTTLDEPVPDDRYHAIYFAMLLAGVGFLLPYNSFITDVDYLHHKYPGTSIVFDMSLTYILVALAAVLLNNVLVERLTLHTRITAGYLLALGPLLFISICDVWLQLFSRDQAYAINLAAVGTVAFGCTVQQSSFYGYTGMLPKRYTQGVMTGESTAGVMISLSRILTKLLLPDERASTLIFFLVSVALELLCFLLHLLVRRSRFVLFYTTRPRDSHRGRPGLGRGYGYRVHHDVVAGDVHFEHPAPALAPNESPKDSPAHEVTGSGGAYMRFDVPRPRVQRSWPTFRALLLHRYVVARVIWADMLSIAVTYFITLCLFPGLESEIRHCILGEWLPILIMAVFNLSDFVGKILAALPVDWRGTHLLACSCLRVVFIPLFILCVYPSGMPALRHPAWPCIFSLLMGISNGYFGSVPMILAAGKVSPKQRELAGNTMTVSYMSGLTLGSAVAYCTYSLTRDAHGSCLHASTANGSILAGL

By IC50 is commonly meant the midpoint of a concentration-inhibition curve. As to `COC(=O)C1=CO[C@@H](C)[C@H]2CN3CC[C@]4(C(=O)Nc5ccccc54)[C@@H]3C[C@H]12` [mitraphylline], the half-maximal inhibitory concentration (IC50) turned out to be 7.05 µM at OCT1 (listed as Mitraphylline) and 7.1 µM on OCT1. For the same compound, the MDR1 substrate status result in the series on MDR1 was “MDR1 substrate”. The “interaction with MRPs” value with MRPs was “not to interact with MRPs”.
`COC(=O)C1=CO[C@@H](C)[C@@H]2CN3CC[C@@]4(C(=O)Nc5ccccc54)[C@@H]3C[C@H]12` [isopteropodine]: the IC50 amounted to 24.6 µM at OATP1B3 (listed as Isopteropodine); 24.6 µM on OATP1B3; 45.4 µM at OATP2B1 (listed as Isopteropodine); 45.4 µM at OATP2B1; 36.1 µM at OATP1A2; 2.81 µM on OCT1 (listed as Isopteropodine). Moreover, the IC50 at OCT1 worked out at 2.8 µM. Moreover, the “inhibitory effect on transporter-specific transport” value at ENT4 was “significantly inhibited”.
